Laboratory results reported in patent US20080119412A1, “Polypeptides for Modulating Binding of Trp Channel Proteins and Trp- Associated Proteins” (NoNO Inc., priority 2003, published 2008).
Residues, ends and D or L forms follow the SMILES beside them. *: point of attachment. Biotin = O=C1N[C@H]2[C@H](CS[C@H]2CCCCC(=O)*)N1

Assays:
[1] = biological target: TRPM2 (Homo sapiens, UniProt O94759); settings: binding to carboxy-terminal NUDT9 Nudix hydrolase domain; read-out: EC50, gating of TRPM2 channel; cited from earlier work
[2] = biological target: T1, INADL d3 (Homo sapiens, UniProt Q8NI35); experiment: G3 assay titration, GST-PDZ fusion / biotinylated peptide; assay type: binding; settings: for ODmax (450 nm): Table 10, titration of peptides with INADL d3
T1 construct: made in house; host or cells: E. coli (DH5alpha, BL21 or JM109)
T1 sequence (Q8NI35 with tags, fused parts or gaps): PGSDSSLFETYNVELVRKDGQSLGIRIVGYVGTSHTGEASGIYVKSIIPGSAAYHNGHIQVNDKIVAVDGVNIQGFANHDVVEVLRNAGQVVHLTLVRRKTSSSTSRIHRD
Experimental: (§1) The G3 assay is identical to the G0 assay with the following exceptions. The peptides are typically present at 0.1 μM rather than 20 μM. The peptides are also pre-incubated with the HRP-streptavidin prior to adding to the assay plate. In the G0 assay, free peptide is incubated with the PDZ proteins prior to the addition of the HRP-streptavidin. Thus, for the G0 assay one can lose signal if the bound peptide dissociates from the PDZ protein prior to the addition of the HRP-streptavidin. In the G3 modified assay the HRP-streptavidin/peptide complex is added to the plate in one step, thus increasing the likelihood that all the bound peptide will be bound to HRP-streptavidin. The G3 modified assay increases the chance of observing weak interactions.
(§2) This example describes assays to identify binding between TRPM7 and PDZ domains. GST-PDZ fusions are produced that each contain an entire PDZ domain (or multiple PDZ domains), the collection encompassing approximately 90% of all PDZ domains identified in the human genome. (See Table 5 and Section V (PDZ Proteins and PL Protein Interactions Disclosure). Biotinylated peptide corresponding to 11 residues of Tat coupled to the C-terminal 9 amino acids of TRPM7 ([…]; SEQ ID NO:258) is synthesized and purified by HPLC.
(§3) • Nunc MaxiSorp 96 well Immuno-plate, Nunc • PBS pH 7.4 (phosphate buffered saline, 8 g NaCl, 0.29 g KCl, 1.44 g Na2HPO4, 0.24 g KH2PO4, add H2O to 1 liter and pH 7.4; 0.2 μm filter) • Assay Buffer: 2% BSA in PBS (20 g of bovine serum albumin per liter PBS, fraction V, ICN Biomedicals, cat#IC15142983 • Goat anti-GST polyclonal Ab, stock 5 mg/ml, stored at 4° C., Amersham Pharmacia cat#27-4577-01 • Dilute 1:1000 in PBS, final concentration 5 μg/ml. • HRP-Streptavidin, 2.5 mg/2 ml stock stored at 4° C., Zymed cat#43-4323, dilute 1:2000 into Assay buffer, final concentration of […] • Wash Buffer, PBS • Biotinylated peptides (HPLC purified, stock solution stored in −20° C. freezer) • GST-PRISM proteins (stock stored at −80° C., after 1st thaw store in −10° C. freezer) • TMB (3,3′,5,5′, teramethylbensidine), tablets, Sigma cat.#T5525 • Per plate, dissolve 1 tablet in 1 ml DMSO, add 9 ml Citrate/Phosphate buffer pH 5.4 and 2 μL H2O2 • 0.1 M H2SO4, Sigma cat.#S1526 • 12-w multichannel pipettor & tips • 50 ml reagent reservoirs, Costar#4870 • 50, 15 ml polypropylene conical tubes • Costar Transtar 96 Costar #7605 • Transtar 96 Cartridge Costar #7610 • Molecular Devices microplate reader (450 & 650 nm filters) with SoftMax Pro software *When using reagents stored at or 4° C. or −20° C., remove & keep on ice
(§4) • 1. Coat plate with 100 μl of 5 μg/ml anti-GST, overnight at 4° C. • 2. Dump contents of plate & out tap dry on paper towels • 3. Block with 200 μl Assay Buffer for 2 hrs at room temperature • 4. Prepare proteins at 5 μg/ml in Assay Buffer • 5. Wash 3× with cold PBS (4° C.), avoiding letting the plates dry out • 6. Add proteins at 50 μl per well, incubate 1 to 2 hrs at 4° C. • 7. Prepare peptides to desired concentration in Assay Buffer • 8. Wash 3× with cold PBS (4° C.), avoiding letting the plates dry out • 9. Add HRP-Streptavidin/peptide complex [prepared by incubating for 20 minutes at room temperature HRP-Streptavidin (1:2000) with the desired biotin-peptide concentration for 20 minutes at room temperature] at 50 μl per well on ice • 10. Place at room temperature for exactly 30 minutes • 11. Promptly wash 5× with PBS at room temperature • 12. Add 100 μl/well TMB substrate (write time on plate) • 13. Incubate in dark at room temperature for a maximum of 30 minutes • 14. Read plate at 25 minutes (650 nm), optional • 15. Stop reaction with 100 μl of 0.18 M H2SO4, 30 minutes after adding TMB • Take last reading at 450 nm soon after stopping reaction
(§5) The G3 assay was performed using 0.1 μM peptide representing 11 amino acids of Tat fused to the final 9 amino acids of TRPM7 ([…]; SEQ ID NO:258). […]

[3] = biological target: T2, ZO-1 d2 (Homo sapiens, UniProt Q07157, DEL264-264); experiment: as above; assay type: binding; settings: for ODmax (450 nm): Table 10, titration of peptides with ZO-1 d2
T2 construct: made in house; host or cells: E. coli (DH5alpha, BL21 or JM109)
T2 sequence (Q07157 with tags, fused parts or gaps DEL264-264): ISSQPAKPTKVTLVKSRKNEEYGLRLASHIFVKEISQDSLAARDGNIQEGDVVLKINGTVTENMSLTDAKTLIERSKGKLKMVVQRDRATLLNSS
Experimental: as §1, §2, §3, §4, §5

[4] = biological target: T1, INADL d3; experiment: G assay, peptide binding to GST-PDZ fusion (Table 11); settings: Table 11, titrations or binding assays
Experimental: (§6) The binding of labeled PL peptide (e.g., as listed in TABLE 2 and TABLE 4) to this surface is then measured. In a preferred embodiment, the assay is carried out as follows:
(§7) (1) A PDZ-domain polypeptide is bound to a surface, e.g. a protein binding surface. In a preferred embodiment, a GST/PDZ fusion protein containing one or more PDZ domains is bound to a polystyrene 96-well plate. […] In one embodiment, the GST/PDZ fusion protein is bound via an anti-GST antibody that is coated onto the 96-well plate. Adequate binding to the plate can be achieved when:
(§8) (2) Biotinylated PL peptides are allowed to react with the surface by addition of 50 μl per well of 20 μM solution of the biotinylated peptide in PBS/BSA for 10 minutes at 4° C., followed by an additional 20 minute incubation at 25° C. The plate is washed 3 times with ice cold PBS.
(§9) (3) The binding of the biotinylated peptide to the GST/PDZ fusion protein surface can be detected using a variety of methods and detectors known to one of skill in the art. In one embodiment, 100 μl per well of 0.5 μg/ml streptavidin-horseradish peroxidase (HRP) conjugate dissolved in BSA/PBS is added and allowed to react for 20 minutes at 4° C. The plate is then washed 5 times with 50 mM Tris pH 8.0 containing 0.2% Tween 20, and developed by addition of 100 μl per well of HRP-substrate solution (TMB, Dako) for 20 minutes at room temperature (RT). The reaction of the HRP and its substrate is terminated by addition of 100 μl per well of 1 M sulfuric acid, and the optical density (O.D.) of each well of the plate is read at 450 um.
(§10) (4) Specific binding of a PL peptide and a PDZ domain polypeptide is determined by comparing the signal from the well(s) in which the PL peptide and PDZ domain polypeptide are combined, with the background signal(s). […] Typically a specific or selective reaction will be at least twice background signal, more typically more than 5 times background, and most typically 10 or more times the background signal. […] Correspondingly, a statistical test (e.g. a T-test) comparing repeated measurements of the signal with -repeated measurements of the background will result in a p-value <0.05, more typically a p-value <0.01, and most typically a p-value <0.001 or less. As noted, in an embodiment of the G assay, the signal from binding of a given PL peptide to immobilized (surface bound) GST polypeptide alone is one suitable negative control (sometimes referred to as B1). Because all measurement are done in multiples (i.e. at least duplicate) the arithmetic mean (or, equivalently, average.) of several measurements is used in determining the binding, and the standard error of the mean is used in determining the probable error in the measurement of the binding. The standard error of the mean of N measurements equals the square root of the following: the sum of the squares of the difference between each measurement and the mean, divided by the product of (N) and (N−1). Thus, in one embodiment, specific binding of the PDZ protein to the platebound peptide is determined by comparing the mean signal (“mean S”) and standard error of the signal (“SE”) for a particular PL-PDZ combination with the mean B1.

[5] = biological target: T2, ZO-1 d2; experiment: as above; settings: Table 11, titrations or binding assays
Experimental: as §6, §7, §8, §9, §10

Chain of TRPM2 (O94759 whole entry, the tested form may be a part): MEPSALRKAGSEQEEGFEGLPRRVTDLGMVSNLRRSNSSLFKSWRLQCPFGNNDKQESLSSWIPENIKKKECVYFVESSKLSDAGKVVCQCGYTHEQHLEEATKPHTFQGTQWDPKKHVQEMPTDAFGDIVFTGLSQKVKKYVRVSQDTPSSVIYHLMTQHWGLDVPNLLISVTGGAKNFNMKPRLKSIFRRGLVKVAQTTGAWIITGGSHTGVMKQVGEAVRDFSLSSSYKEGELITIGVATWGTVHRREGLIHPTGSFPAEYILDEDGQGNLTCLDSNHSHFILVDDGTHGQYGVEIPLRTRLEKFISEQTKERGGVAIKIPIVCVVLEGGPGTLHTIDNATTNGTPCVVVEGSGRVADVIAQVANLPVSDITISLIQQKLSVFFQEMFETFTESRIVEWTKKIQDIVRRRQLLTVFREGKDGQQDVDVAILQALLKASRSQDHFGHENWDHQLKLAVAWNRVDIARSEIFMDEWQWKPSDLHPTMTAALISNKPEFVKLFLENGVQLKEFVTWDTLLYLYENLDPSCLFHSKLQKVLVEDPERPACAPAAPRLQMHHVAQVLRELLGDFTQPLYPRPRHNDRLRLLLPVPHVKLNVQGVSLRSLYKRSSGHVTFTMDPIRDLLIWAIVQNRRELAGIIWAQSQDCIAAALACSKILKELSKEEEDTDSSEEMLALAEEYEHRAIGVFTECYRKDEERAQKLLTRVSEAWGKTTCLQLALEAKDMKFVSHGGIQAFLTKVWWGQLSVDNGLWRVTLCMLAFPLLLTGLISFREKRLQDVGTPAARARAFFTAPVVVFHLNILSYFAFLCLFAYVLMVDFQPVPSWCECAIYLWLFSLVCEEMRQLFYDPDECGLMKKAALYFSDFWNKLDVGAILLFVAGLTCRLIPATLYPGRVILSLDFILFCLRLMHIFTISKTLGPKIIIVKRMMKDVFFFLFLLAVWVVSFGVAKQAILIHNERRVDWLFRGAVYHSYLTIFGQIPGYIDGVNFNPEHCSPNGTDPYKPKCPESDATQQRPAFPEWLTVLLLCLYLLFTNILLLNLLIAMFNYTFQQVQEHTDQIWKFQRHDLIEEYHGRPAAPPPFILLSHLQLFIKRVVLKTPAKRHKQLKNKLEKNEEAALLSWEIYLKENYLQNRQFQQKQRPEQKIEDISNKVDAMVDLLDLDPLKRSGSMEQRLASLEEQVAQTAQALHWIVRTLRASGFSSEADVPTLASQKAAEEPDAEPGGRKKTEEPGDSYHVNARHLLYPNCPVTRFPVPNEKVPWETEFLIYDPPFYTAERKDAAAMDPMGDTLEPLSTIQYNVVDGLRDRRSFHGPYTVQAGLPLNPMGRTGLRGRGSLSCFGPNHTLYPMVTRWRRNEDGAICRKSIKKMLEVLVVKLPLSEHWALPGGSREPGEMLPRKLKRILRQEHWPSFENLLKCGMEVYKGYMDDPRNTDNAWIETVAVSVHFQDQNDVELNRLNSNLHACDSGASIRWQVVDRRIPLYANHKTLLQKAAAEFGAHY

Structure (SMILES)	EC50 [1]	ODmax (450 nm) [2]	EC50 [3]	ODmax (450 nm) [3]	PDZ domain bound [4]	PDZ domain bound [5]	EC50 [2]
Nc1ncnc2c1ncn2[C@@H]1O[C@H](COP(=O)(O)OP(=O)(O)OC[C@H]2OC(O)[C@H](O)[C@@H]2O)[C@@H](O)[C@H]1O (stereo partly drawn) [ADP ribose]	100 µM						
CC[C@H](C)[C@H](NC(=O)[C@@H](NC(=O)[C@H](CCCNC(=N)N)NC(=O)[C@H](CC(=O)O)NC(=O)[C@H](CO)NC(=O)[C@H](CCCNC(=N)N)NC(=O)[C@H](C)NC(=O)[C@H](CCCNC(=N)N)NC(=O)[C@H](CCCNC(=N)N)NC(=O)[C@H](CCCNC(=N)N)NC(=O)[C@H](CCC(N)=O)NC(=O)[C@H](CCCNC(=N)N)NC(=O)[C@H](CCCNC(=N)N)NC(=O)[C@H](CCCCN)NC(=O)[C@H](CCCCN)NC(=O)[C@H](CCCNC(=N)N)NC(=O)CNC(=O)[C@H](Cc1ccc(O)cc1)NC(=O)CCCC[C@@H]1SC[C@@H]2NC(=O)N[C@@H]21)[C@@H](C)O)C(=O)N[C@@H](Cc1c[nH]c2ccccc12)C(=O)N[C@@H](C)C(=O)O [Peptide 1829] (Biotin-YGRKKRRQRRRARSDRTIWA-OH; C-terminus assumed)		1.40	0.007 µM	2.90	INADL D3	ZO-1 D2	
C[C@H](NC(=O)[C@H](Cc1c[nH]c2ccccc12)NC(=O)[C@H](Cc1ccc(O)cc1)NC(=O)[C@H](CCCCN)NC(=O)[C@H](CCCNC(=N)N)NC(=O)[C@H](CC(=O)O)NC(=O)[C@@H](NC(=O)[C@H](CCCNC(=N)N)NC(=O)[C@H](CO)NC(=O)[C@H](CCCNC(=N)N)NC(=O)[C@H](CCCNC(=N)N)NC(=O)[C@H](CCCNC(=N)N)NC(=O)[C@H](CCC(N)=O)NC(=O)[C@H](CCCNC(=N)N)NC(=O)[C@H](CCCNC(=N)N)NC(=O)[C@H](CCCCN)NC(=O)[C@H](CCCCN)NC(=O)[C@H](CCCNC(=N)N)NC(=O)CNC(=O)[C@H](Cc1ccc(O)cc1)NC(=O)CCCC[C@@H]1SC[C@@H]2NC(=O)N[C@@H]21)[C@@H](C)O)C(=O)O [Peptide 1832] (Biotin-YGRKKRRQRRRSRTDRKYWA-OH; C-terminus assumed)		0.60	< 0.02 µM	2.10	INADL D3	ZO-1 D2	0.2 µM
CC[C@H](C)[C@H](NC(=O)[C@H](CCC(N)=O)NC(=O)[C@H](Cc1ccc(O)cc1)NC(=O)[C@H](CCCCN)NC(=O)[C@H](CCCNC(=N)N)NC(=O)[C@H](CC(=O)O)NC(=O)[C@@H](NC(=O)[C@H](CCCNC(=N)N)NC(=O)[C@H](CO)NC(=O)[C@H](CCCNC(=N)N)NC(=O)[C@H](CCCNC(=N)N)NC(=O)[C@H](CCCNC(=N)N)NC(=O)[C@H](CCC(N)=O)NC(=O)[C@H](CCCNC(=N)N)NC(=O)[C@H](CCCNC(=N)N)NC(=O)[C@H](CCCCN)NC(=O)[C@H](CCCCN)NC(=O)[C@H](CCCNC(=N)N)NC(=O)CNC(=O)[C@H](Cc1ccc(O)cc1)NC(=O)CCCC[C@@H]1SC[C@@H]2NC(=O)N[C@@H]21)[C@@H](C)O)C(=O)O [Peptide 1839] (Biotin-YGRKKRRQRRRSRTDRKYQI-OH; C-terminus assumed)		1.60	< 0.02 µM	2.50	INADL D3		0.13 µM
CC[C@H](C)[C@H](NC(=O)[C@H](CC(C)C)NC(=O)[C@H](CCCNC(=N)N)NC(=O)[C@H](CCCNC(=N)N)NC(=O)[C@H](CCC(=O)O)NC(=O)[C@H](CC(=O)O)NC(=O)[C@H](CCC(N)=O)NC(=O)[C@H](CCCNC(=N)N)NC(=O)[C@H](CCCNC(=N)N)NC(=O)[C@H](CCCNC(=N)N)NC(=O)[C@H](CCC(N)=O)NC(=O)[C@H](CCCNC(=N)N)NC(=O)[C@H](CCCNC(=N)N)NC(=O)[C@H](CCCCN)NC(=O)[C@H](CCCCN)NC(=O)[C@H](CCCNC(=N)N)NC(=O)CNC(=O)[C@H](Cc1ccc(O)cc1)NC(=O)CCCC[C@@H]1SC[C@@H]2NC(=O)N[C@@H]21)C(=O)N[C@H](C(=O)N[C@@H](CC(C)C)C(=O)O)C(C)C [Peptide 1842] (Biotin-YGRKKRRQRRRQDERRLIVL-OH)		1.90	0.035 µM	2.30		ZO-1 D2	< 1 µM
CC(C)C[C@H](NC(=O)[C@H](CO)NC(=O)[C@@H](NC(=O)[C@H](CC(C)C)NC(=O)[C@H](CCCNC(=N)N)NC(=O)[C@H](CC(=O)O)NC(=O)CNC(=O)[C@H](CCCNC(=N)N)NC(=O)[C@H](C)NC(=O)[C@H](CCCNC(=N)N)NC(=O)[C@H](CCCNC(=N)N)NC(=O)[C@H](CCCNC(=N)N)NC(=O)[C@H](CCC(N)=O)NC(=O)[C@H](CCCNC(=N)N)NC(=O)[C@H](CCCNC(=N)N)NC(=O)[C@H](CCCCN)NC(=O)[C@H](CCCCN)NC(=O)[C@H](CCCNC(=N)N)NC(=O)CNC(=O)[C@H](Cc1ccc(O)cc1)NC(=O)CCCC[C@@H]1SC[C@@H]2NC(=O)N[C@@H]21)C(C)C)C(=O)O [Peptide 1843] (Biotin-YGRKKRRQRRRARGDRLVSL-OH; C-terminus assumed)		1.20	0.017 µM	2.20		ZO-1 D2	< 2 µM
CC(C)[C@H](NC(=O)[C@H](Cc1ccc(O)cc1)NC(=O)[C@H](Cc1ccc(O)cc1)NC(=O)[C@H](CCC(=O)O)NC(=O)[C@H](CCCCN)NC(=O)[C@H](CC(=O)O)NC(=O)[C@H](CCCCN)NC(=O)[C@H](CC(N)=O)NC(=O)[C@H](CCCCN)NC(=O)[C@H](CCCNC(=N)N)NC(=O)[C@H](CCCNC(=N)N)NC(=O)[C@H](CCCNC(=N)N)NC(=O)[C@H](CCC(N)=O)NC(=O)[C@H](CCCNC(=N)N)NC(=O)[C@H](CCCNC(=N)N)NC(=O)[C@H](CCCCN)NC(=O)[C@H](CCCCN)NC(=O)[C@H](CCCNC(=N)N)NC(=O)CNC(=O)[C@H](Cc1ccc(O)cc1)NC(=O)CCCC[C@@H]1SC[C@@H]2NC(=O)N[C@@H]21)C(=O)O [Peptide 1852] (Biotin-YGRKKRRQRRRKNKDKEYYV-OH)			< 0.02 µM				< 0.02 µM
NC(=O)c1ccc[n+]([C@@H]2O[C@H](COP(=O)([O-])OP(=O)(O)OC[C@H]3O[C@@H](n4cnc5c(N)ncnc54)[C@H](O)[C@@H]3O)[C@@H](O)[C@H]2O)c1 [nicotinamide adenine dinucleotide]	1000 µM						
